Data reported in patent US6414114B2, “Disulfides and thiol compounds” (Dovetail Technologies, Inc., priority 1998, dated 2002).

Legend:
[1] = Solubility in acetonitrile/water; type: physicochemical; settings: solvent acetonitrile/water as given in the value
[2] = test system: B16 melanoma; settings: administered along with cyclophosphamide; cited from earlier work
[3] = test system: NS-1 mouse myeloma; settings: repeated administration as monotherapy soon after inoculation with relatively low doses of tumor; cited from earlier work
[4] = test system: Cloudman S-91 melanoma; settings: melanomas already established; cited from earlier work
[5] = test system: MOPC-315 myeloma; settings: administered along with melphalan; cited from earlier work

Compound | Solubility [1] | benefit as adjunct to chemotherapy [2] | survival rates [3] | percent survival [4] | benefit as adjunct to chemotherapy [5]
O=C(CCNC(=O)OCc1ccccc1)NC(CS)C(=O)O (stereo not drawn) [Cbz-beta-Ala-Cys] | Soluble in 20% Acetonitrile/Water | – | – | – | –
O=C(CCNC(=O)OCc1ccccc1)N[C@@H](CSSC[C@H](NC(=O)CCNC(=O)OCc1ccccc1)C(=O)O)C(=O)O [Cbz-βAla-Cystine-βAla-Cbz, Cbz-beta-Ala-Cystine-beta-Ala-Cbz] | Soluble in 30% Acetonitrile/water | – | – | – | –
NCCC(=O)NCCSSCCNC(=O)CCN [β-alethine, Beta-alanyl cysteamine disulfide] | – | beneficial adjunct to chemotherapy | significantly increased survival rates | increase the percent survival | beneficial adjunct to chemotherapy
